IC50 data for 25 compounds are collected here from US20250074911A1, “MACROCYCLIC BTK INHIBITORS” (Crossfire Oncology Holding B.V., priority 2021, published 2025).

The test system of experiment [1] is wt-REC-1 mantle cell lymphoma cells. In words: Cell proliferation assay wt-REC-1 (ATPlite, 72 hours). In kind it is cell-based. Conditions: 72 h; read-out: IC50 wt-REC-1. As for the experimental part:
Results of the BTK […] binding affinity are shown in Table 1 below. • IC50 BTK […]: […] wt-REC-1 mantle cell lymphoma cells were purchased from American Type Culture Collection via Synthego Corporation (cat. no. CRL-3004, ATCC). […] Luminescence was recorded on an Envision multimode reader. The cell signal at the start of incubation was recorded separately in order to distinguish between cell population growth and cell death. In addition, maximum growth was determined by incubation of a duplicate without compound in the presence of 0.3% DMSO. Percentage growth was used as the main y-axis signal. IC50s were fitted by non-linear regression using IDBS XLfitTM5 using a 4-parameter logistic curve, yielding a maximum signal, minimum signal, hill-parameter and IC50. Results of the wt-REC-1 proliferation are shown in Table 1 below. • IC50 wt-REC-1: […]
A general note: Cellular ATP, detected with luciferase, serves as a proxy for viable cell number.

Another experiment has as its system REC-1 T474I cell lines. Briefly: Cell proliferation assay REC-1 BTK T474I knock-in cells (ATPlite, 72 hours). In kind it is cell-based. Conditions: Homo sapiens, Rec1; 72 hours; read-out: IC50 REC-1 T474I. On the procedure: Cell proliferation assay Generation of BTK […] knock-in cell lines wt-REC-1 cell lines expressing mutant BTK were created at Synthego Corporation. Cell lines expressing BTK […] was generated via CRISPR/Cas9. Monoclonal REC-1 […] cell lines were obtained by single cell cloning. The mutation status of all cell lines was confirmed via sequencing. […] Luminescence was recorded on an Envision multimode reader. The cell signal at the start of incubation was recorded separately in order to distinguish between cell population growth and cell death. In addition, maximum growth was determined by incubation of a duplicate without compound in the presence of 0.3% DMSO. Percentage growth was used as the main y-axis signal.

In experiment [2] the target is full-length wt-BTK enzyme (Homo sapiens (Human), UniProt Q06187). In words: Biochemical kinase assay wt-BTK (IMAP). As for the experimental part:
Biochemical kinase assay wt-BTK To determine the inhibitory activity of compounds on wt-BTK enzyme activity, the IMAP® assay (Molecular Devices) was used. […] After pre-incubation of 1 hour in the dark at room temperature, fluorescein-labeled MBP-derived substrate peptide (Molecular Devices, cat. no. RP 7123) was added, followed by ATP to start the reaction. Final enzyme concentration was 1.2 nM, final substrate concentration 50 nM, and final ATP concentration was 4 μM. The reaction was allowed to proceed for 2 hours at room temperature in the dark. The reaction was stopped by quenching with IMAP progressive binding solution according to the protocol of the manufacturer (Molecular Devices). Fluorescein polarization was measured on an Envision multimode reader (Perkin Elmer, Waltham, MA, U.S.A.). […] Results of the wt-BTK binding affinity are shown in Table 1 below. • IC50 wt-BTK: […]

Experiment [3] concerns the target full-length BTK C481S enzyme (Homo sapiens (Human), UniProt Q06187, C481S). Briefly: Biochemical kinase assay BTK C481S (IMAP). As for the experimental part:
Biochemical kinase assay BTK […] To determine the inhibitory activity of compounds on BTK C481S enzyme activity, the IMAP® assay (Molecular Devices) was used. […] After pre-incubation of 1 hour in the dark at room temperature, fluorescein-labeled MBP-derived substrate peptide (Molecular Devices, cat. no. RP 7123) was added, followed by ATP to start the reaction. Final enzyme concentration was 1.2 nM final substrate concentration 50 nM, and final ATP concentration was 7 μM. The reaction was allowed to proceed for 2 hours at room temperature in the dark. The reaction was stopped by quenching with IMAP progressive binding solution according to the protocol of the manufacturer (Molecular Devices). Fluorescein polarization was measured on an Envision multimode reader (Perkin Elmer, Waltham, MA, U.S.A.). IC50 were calculated using XLfitTM5 software (ID Business Solutions, Ltd., Surrey, U.K.). Results of the BTK […] binding affinity are shown in Table 1 below. • IC50 BTK […]: […]

Some results are limits rather than exact numbers.

full-length wt-BTK enzyme, sequence (Q06187 whole entry): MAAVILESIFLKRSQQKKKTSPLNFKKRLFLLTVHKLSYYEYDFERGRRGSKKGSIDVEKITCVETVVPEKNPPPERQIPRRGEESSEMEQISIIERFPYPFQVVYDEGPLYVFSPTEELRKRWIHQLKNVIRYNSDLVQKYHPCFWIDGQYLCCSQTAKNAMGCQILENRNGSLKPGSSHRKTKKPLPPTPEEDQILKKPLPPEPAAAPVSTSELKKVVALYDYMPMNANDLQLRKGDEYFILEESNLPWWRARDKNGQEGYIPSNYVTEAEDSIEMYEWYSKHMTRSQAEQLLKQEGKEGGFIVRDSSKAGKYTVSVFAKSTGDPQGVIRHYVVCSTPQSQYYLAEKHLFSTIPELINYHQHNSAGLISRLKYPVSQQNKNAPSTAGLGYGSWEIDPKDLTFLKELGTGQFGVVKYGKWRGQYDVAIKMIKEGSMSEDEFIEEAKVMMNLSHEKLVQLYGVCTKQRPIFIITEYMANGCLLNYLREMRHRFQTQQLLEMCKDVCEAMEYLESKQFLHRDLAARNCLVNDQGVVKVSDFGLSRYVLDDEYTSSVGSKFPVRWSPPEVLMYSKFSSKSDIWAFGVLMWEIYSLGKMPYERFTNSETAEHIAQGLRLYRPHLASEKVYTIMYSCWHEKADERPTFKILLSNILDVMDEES
full-length BTK C481S enzyme, sequence (Q06187 whole entry C481S): as the sequence (Q06187 whole entry) above, with C481S counted along it

Consider `C[C@@H]1CCn2nc(-c3ccc(C(=O)Nc4cc(C(F)(F)F)ccn4)cc3)c3c(N)ncc(c32)CCCOCC(=O)N1` [Example 122], for which the IC50 in experiment [1] is 100 to 1000 nM; in the experiment with REC-1 T474I cell lines, 500 to 10000 nM; in experiment [2] it was 5 to 50 nM; in experiment [3], 5 to 50 nM.
With `Nc1ncc2c3c1c(-c1ccc(C(=O)Nc4cc(C(F)(F)F)ccn4)cc1)nn3[C@@H]1CCC[C@H](C1)NC(=O)CCCCNC/C=C/2` [Example 22], the half-inhibitory concentration (IC50) in experiment [1] is 100 to 1000 nM; in the experiment with REC-1 T474I cell lines, 500 to 10000 nM; in experiment [2], less than 5 nM; in experiment [3], less than 5 nM.
As for `Nc1ncc2c3c1c(-c1ccc(C(=O)Nc4cc(C(F)(F)F)ccn4)cc1)nn3[C@@H]1CCC[C@H](C1)NC(=O)CCCC/C=C/C2` [Example 98a], the IC50 in experiment [1] lay in the range of 100 to 1000 nM; with REC-1 T474I cell lines, 500 to 10000 nM; in experiment [2] it was 50 to 500 nM; in experiment [3], 50 to 500 nM.
`Nc1ncc2c3c1c(-c1ccc(C(=O)Nc4cc(C(F)(F)F)ccn4)cc1)nn3[C@@H]1CCC[C@H](C1)NC(=O)CCC/C=C/C2` [Example 94a]: the IC50 was in the range of 100 to 1000 nM in experiment [1], 500 to 10000 nM in the experiment with REC-1 T474I cell lines, 5 to 50 nM in experiment [2] and 5 to 50 nM in experiment [3].
As to `C[C@@H]1CCn2nc(-c3ccc(C(=O)Nc4cc(C(F)(F)F)ccn4)cc3)c3c(N)ncc(c32)/C=C/CCCCCCCC(=O)N1` [Example 63], the IC50 is 100 to 1000 nM in experiment [1], 500 to 10000 nM in the experiment on REC-1 T474I cell lines, less than 5 nM in experiment [2] and less than 5 nM in experiment [3].
On to `Nc1ncc2c3c1c(-c1ccc(C(=O)Nc4cc(C(F)(F)F)ccn4)cc1)nn3[C@@H]1CCC[C@H](C1)NC(=O)CCNC/C=C/C2` [Example 106], for which the IC50 in experiment [1] fell in the range of 1000 to 10000 nM; in the experiment on REC-1 T474I cell lines, 500 to 10000 nM; in experiment [2], 5 to 50 nM; in experiment [3], 5 to 50 nM.
With `C[C@@H]1CCn2nc(-c3ccc(C(=O)Nc4cc(C(F)(F)F)ccn4)cc3)c3c(N)ncc(c32)/C=C/CCCCCCCCC(=O)N1` [Example 64], the IC50 is 100 to 1000 nM in experiment [1], 500 to 10000 nM in the experiment on REC-1 T474I cell lines, 5 to 50 nM in experiment [2] and less than 5 nM in experiment [3].
For `Nc1ncc2c3c1c(-c1ccc(C(=O)Nc4ccccn4)cc1)nn3[C@@H]1CCC[C@H](C1)NC(=O)CCCC/C=C/C2` [Example 100a], the IC50 is 1000 to 10000 nM in experiment [1], 500 to 10000 nM in the experiment with REC-1 T474I cell lines, 50 to 500 nM in experiment [2] and 50 to 500 nM in experiment [3].
Consider `Nc1ncc2c3c1c(-c1ccc(C(=O)Nc4cc(C(F)(F)F)ccn4)cc1)nn3[C@@H]1CCC[C@H](C1)NC(=O)CC/C=C/C2` [Example 95], for which the IC50 in experiment [1] was in the range of 1000 to 10000 nM; in the experiment with REC-1 T474I cell lines, 500 to 10000 nM; in experiment [2] it was 5 to 50 nM; in experiment [3], 5 to 50 nM.
On to `C[C@@H]1CCn2nc(-c3ccc(C(=O)Nc4cc(C(F)(F)F)ccn4)cc3)c3c(N)ncc(c32)CC=CCCCCCC(=O)N1` [Example 111], for which the IC50 in experiment [1] lay in the range of 1000 to 10000 nM; with REC-1 T474I cell lines, 500 to 10000 nM; in experiment [2], 5 to 50 nM; in experiment [3], 5 to 50 nM.
For the compound `Nc1ncc2c3c1c(-c1ccc(C(=O)Nc4cc(C(F)(F)F)ccn4)cc1)nn3[C@@H]1CCC[C@H](C1)NC(=O)CCCNC/C=C/C2` [Example 107], the IC50 is 1000 to 10000 nM in experiment [1], 500 to 10000 nM in the experiment with REC-1 T474I cell lines, 5 to 50 nM in experiment [2] and 5 to 50 nM in experiment [3].
Take `Nc1ncc2c3c1c(-c1ccc(C(=O)Nc4ccccn4)cc1)nn3[C@@H]1CCC[C@H](C1)NC(=O)CCCCCCC2` [Example 126]: the IC50 in experiment [1] was less than 100 nM; in the experiment on REC-1 T474I cell lines, 100 to 500 nM; in experiment [2], less than 5 nM; in experiment [3], less than 5 nM.
Consider `Nc1ncc2c3c1c(-c1ccc(C(=O)Nc4cc(C(F)(F)F)ccn4)cc1)nn3[C@@H]1CCC[C@H](C1)C(=O)NCCCCCC/C=C\C2` [Example 92], for which the IC50 in experiment [1] lay in the range of 100 to 1000 nM; with REC-1 T474I cell lines, 500 to 10000 nM; in experiment [2], 5 to 50 nM; in experiment [3] it was 5 to 50 nM.
For `Nc1ncc2c3c1c(-c1ccc(C(=O)Nc4ccccn4)cc1)nn3[C@@H]1CCC[C@H](C1)C(=O)NCC/C=C\C2` [Example 91], the IC50 in experiment [1] was in the range of 1000 to 10000 nM; with REC-1 T474I cell lines it was 500 to 10000 nM; in experiment [2], 50 to 500 nM; in experiment [3], 50 to 500 nM.
With `Nc1ncc2c3c1c(-c1ccc(C(=O)Nc4cc(C(F)(F)F)ccn4)cc1)nn3[C@@H]1CCC[C@H](C1)C(=O)NCCCCCC2` [Example 117], the IC50 in experiment [1] is 100 to 1000 nM; in the experiment on REC-1 T474I cell lines, 500 to 10000 nM; in experiment [2], 5 to 50 nM; in experiment [3] it was less than 5 nM.
For `C[C@@H]1CCn2nc(-c3ccc(C(=O)Nc4cc(C(F)(F)F)ccn4)cc3)c3c(N)ncc(c32)CC=CCCCCC(=O)N1` [Example 110] the same measures were 100 to 1000 nM, 500 to 10000 nM, 5 to 50 nM and 5 to 50 nM.
For `C[C@@H]1CCn2nc(-c3ccc(C(=O)Nc4cc(C(F)(F)F)ccn4)cc3)c3c(N)ncc(c32)CCCCCCC(=O)N1` [Example 121] the same measures were 100 to 1000 nM, 500 to 10000 nM, 5 to 50 nM and less than 5 nM.
For `Nc1ncc2c3c1c(-c1ccc(C(=O)Nc4ccccn4)cc1)nn3[C@@H]1CCC[C@H](C1)C(=O)NCCCCC/C=C/C2` [Example 88a] the same measures were 100 to 1000 nM, 500 to 10000 nM, 5 to 50 nM and 5 to 50 nM.
`C[C@@H]1CCn2nc(-c3ccc(C(=O)Nc4cc(C(F)(F)F)ccn4)cc3)c3c(N)ncc(c32)/C=C/CN(C)CCCC(=O)N1` [Example 66]: the IC50 in experiment [1] is 1000 to 10000 nM; with REC-1 T474I cell lines it was 500 to 10000 nM; in experiment [2], less than 5 nM; in experiment [3], less than 5 nM.
Consider `C[C@@H]1CCn2nc(-c3ccc(C(=O)Nc4cc(C(F)(F)F)ccn4)cc3)c3c(N)ncc(c32)CCCO[C@H](C)C(=O)N1` [Example 113], for which the IC50 in experiment [1] is 1000 to 10000 nM; with REC-1 T474I cell lines, 500 to 10000 nM; in experiment [2], 5 to 50 nM; in experiment [3] it was 5 to 50 nM.
For `Nc1ncc2c3c1c(-c1ccc(C(=O)Nc4ccccn4)cc1)nn3[C@@H]1CCC[C@H](C1)NC(=O)CCCCC/C=C/C2` [Example 102a], the IC50 in experiment [1] was less than 100 nM; in the experiment with REC-1 T474I cell lines it was less than 100 nM; in experiment [2], less than 5 nM; in experiment [3], less than 5 nM.
Turning to `C[C@@H]1CCn2nc(-c3ccc(C(=O)Nc4cc(C(F)(F)F)ccn4)cc3)c3c(N)ncc(c32)/C=C/CCCCCCC(=O)N1` [Example 62], the half-inhibitory concentration (IC50) was 100 to 1000 nM in experiment [1], 500 to 10000 nM with REC-1 T474I cell lines, less than 5 nM in experiment [2] and less than 5 nM in experiment [3].
For `Nc1ncc2c3c1c(-c1ccc(C(=O)Nc4cc(C(F)(F)F)ccn4)cc1)nn3[C@@H]1CCC[C@H](C1)NC(=O)CCCCC/C=C/C2` [Example 101a], the IC50 was 100 to 1000 nM in experiment [1], 500 to 10000 nM in the experiment on REC-1 T474I cell lines, 5 to 50 nM in experiment [2] and 5 to 50 nM in experiment [3].
Consider `Nc1ncc2c3c1c(-c1ccc(C(=O)Nc4cc(C(F)(F)F)ccn4)cc1)nn3[C@@H]1CCC[C@H](C1)C(=O)NCCCCC/C=C/C2` [Example 89a], for which the IC50 lay in the range of 100 to 1000 nM in experiment [1], 500 to 10000 nM with REC-1 T474I cell lines, 5 to 50 nM in experiment [2] and 5 to 50 nM in experiment [3].
Consider `C[C@@H]1CCn2nc(-c3ccc(C(=O)Nc4cc(C(F)(F)F)ccn4)cc3)c3c(N)ncc(c32)/C=C/CO[C@@H](C)C(=O)N1` [Example 58], for which the IC50 in experiment [1] fell in the range of 1000 to 10000 nM; in the experiment with REC-1 T474I cell lines it was 500 to 10000 nM; in experiment [2] it was 5 to 50 nM; in experiment [3] it was 5 to 50 nM.

By IC50 is commonly meant the concentration at which inhibition is half-maximal.
